Measured values from US9040545B2, “Heterocyclyl pyrazolopyrimidine analogues as selective JAK inhibitors” (Cellzome Limited, priority 2010, dated 2015).

Biological target: T1, JAK3 (Homo sapiens, UniProt P52333)
T1 construct: endogenous in cells; host or cells: mixed Molt4/Ramos lysate (1:2)
T1 sequence (P52333 1-1124): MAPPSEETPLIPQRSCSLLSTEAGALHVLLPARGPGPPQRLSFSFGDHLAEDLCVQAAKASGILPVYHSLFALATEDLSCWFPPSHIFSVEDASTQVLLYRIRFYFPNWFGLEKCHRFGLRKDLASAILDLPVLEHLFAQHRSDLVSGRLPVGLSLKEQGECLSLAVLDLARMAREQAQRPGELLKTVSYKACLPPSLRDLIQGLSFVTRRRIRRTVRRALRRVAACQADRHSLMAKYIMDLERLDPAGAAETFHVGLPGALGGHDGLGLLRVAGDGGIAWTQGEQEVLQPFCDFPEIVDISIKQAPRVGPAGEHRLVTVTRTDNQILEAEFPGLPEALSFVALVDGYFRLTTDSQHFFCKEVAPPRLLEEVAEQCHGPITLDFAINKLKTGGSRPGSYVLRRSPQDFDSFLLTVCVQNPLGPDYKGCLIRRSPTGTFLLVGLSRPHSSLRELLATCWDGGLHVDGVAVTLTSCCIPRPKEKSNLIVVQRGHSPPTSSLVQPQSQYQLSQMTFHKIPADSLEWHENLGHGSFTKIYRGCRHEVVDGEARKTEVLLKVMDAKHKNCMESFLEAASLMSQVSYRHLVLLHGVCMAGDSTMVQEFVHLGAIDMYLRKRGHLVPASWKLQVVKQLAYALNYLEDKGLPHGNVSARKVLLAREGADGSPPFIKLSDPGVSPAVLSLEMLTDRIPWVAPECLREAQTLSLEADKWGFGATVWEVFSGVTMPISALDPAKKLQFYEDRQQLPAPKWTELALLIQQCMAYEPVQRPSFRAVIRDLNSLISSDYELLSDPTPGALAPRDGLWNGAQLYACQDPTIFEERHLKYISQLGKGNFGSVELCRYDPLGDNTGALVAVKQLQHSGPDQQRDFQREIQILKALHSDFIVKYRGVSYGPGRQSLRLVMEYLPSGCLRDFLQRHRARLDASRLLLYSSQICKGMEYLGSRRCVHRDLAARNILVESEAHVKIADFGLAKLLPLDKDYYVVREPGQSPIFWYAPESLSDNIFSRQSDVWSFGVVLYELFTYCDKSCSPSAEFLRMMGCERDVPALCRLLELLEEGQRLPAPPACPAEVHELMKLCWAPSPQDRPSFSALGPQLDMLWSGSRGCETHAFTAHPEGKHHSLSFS
Assay: Kinobeads assay, JAK3
Assay type: binding
Settings: mixed Molt4/Ramos lysate, read-out: Inhibition values (IC50) JAK3
In short: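 Competition binding in mixed Molt4/Ramos cell lysate (1:2, 10 mg/mL protein) with Kinobeads carrying immobilized aminopyrido-pyrimidine ligand, 3 h in cold room; 9-step 1:3 compound dilution series from 5 mM DMSO stock. Bead-bound JAK2/JAK3 eluted and quantified by antibody dot blot with infrared detection; IC50 from dose-response curves.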

| IC50 [nM] | Structure (SMILES) |
| --- | --- |
| < 100 | O=C1COCCN1c1cc(F)cc(Cn2ncc3cnc(Nc4cnn(C5CCNCC5)c4)nc32)c1 [Example 102, 4-(3-fluoro-5-((6-((1-(piperidin-4-yl)-1H-pyrazol-4-yl)amino)-1H-pyrazolo[3,4-d]pyrimidin-1-yl)methyl)phenyl)morpholin-3-one] |
| < 100 | Cn1cc(Nc2ncc3cnn(Cc4cccc(N5CCOCC5)c4Cl)c3n2)cn1 [Example 103, 1-(2-chloro-3-morpholinobenzyl)-N-(1-methyl-1H-pyrazol-4-yl)-1H-pyrazolo[3,4-d]pyrimidin-6-amine] |
| 100 to 1000 | Cn1cc(Nc2ncc3cnn(Cc4cccc(N5CCC6(COC6)C5)c4)c3n2)cn1 [Example 104, 1-(3-(2-oxa-6-azaspiro[3.4]octan-6-yl)benzyl)-N-(1-methyl-1H-pyrazol-4-yl)-1H-pyrazolo[3,4-d]pyrimidin-6-amine] |
| < 100 | O=C1CC(Cn2cc(Nc3ncc4cnn(Cc5cc(F)cc(N6CCOCC6=O)c5)c4n3)cn2)CN1 (stereo not shown) [Example 105, 4-(3-fluoro-5-((6-((1-((5-oxopyrrolidin-3-yl)methyl)-1H-pyrazol-4-yl)amino)-1H-pyrazolo[3,4-d]pyrimidin-1-yl)methyl)phenyl)morpholin-3-one] |
| < 100 | O=C1COCCN1c1cc(F)cc(Cn2ncc3cnc(Nc4cnn(CCS(=O)(=O)NC5CC5)c4)nc32)c1 [Example 106, N-cyclopropyl-2-(4-((1-(3-fluoro-5-(3-oxomorpholino)benzyl)-1H-pyrazolo[3,4-d]pyrimidin-6-yl)amino)-1H-pyrazol-1-yl)ethanesulfonamide] |
| < 100 | N#CCCn1cc(Nc2ncc3cnn(Cc4cc(F)cc(N5CCOCC5=O)c4)c3n2)cn1 [Example 107, 3-(4-((1-(3-fluoro-5-(3-oxomorpholino)benzyl)-1H-pyrazolo[3,4-d]pyrimidin-6-yl)amino)-1H-pyrazol-1-yl)propanenitrile] |
| < 100 | Cn1cc(Nc2ncc3cnn(Cc4cccc(N5CCC(=O)CC5)c4)c3n2)cn1 [Example 108, 1-(3-((6-((1-methyl-1H-pyrazol-4-yl)amino)-1H-pyrazolo[3,4-d]pyrimidin-1-yl)methyl)phenyl)piperidin-4-one] |
| < 100 | O=C(Cn1cc(Nc2ncc3cnn(Cc4cc(F)cc(N5CCOCC5=O)c4)c3n2)cn1)N1CCNCC1 [Example 109, 4-(3-fluoro-5-((6-((1-(2-oxo-2-(piperazin-1-yl)ethyl)-1H-pyrazol-4-yl)amino)-1H-pyrazolo[3,4-d]pyrimidin-1-yl)methyl)phenyl)morpholin-3-one] |
| < 100 | Cn1cc(Nc2ncc3cnn(Cc4c(F)c(F)cc(C(=O)N5CCOCC5)c4F)c3n2)cn1 [Example 110, morpholino(2,4,5-trifluoro-3-((6-((1-methyl-1H-pyrazol-4-yl)amino)-1H-pyrazolo[3,4-d]pyrimidin-1-yl)methyl)phenyl)methanone] |
| < 100 | O=C(c1cc(F)c(F)c(Cn2ncc3cnc(Nc4cnn(CCO)c4)nc32)c1F)N1CCOCC1 [Example 111, morpholino(2,4,5-trifluoro-3-((6-((1-(2-hydroxyethyl)-1H-pyrazol-4-yl)amino)-1H-pyrazolo[3,4-d]pyrimidin-1-yl)methyl)phenyl)methanone] |
| < 100 | C[C@H]1COCCN1c1cccc(Cn2ncc3cnc(Nc4cnn(C)c4)nc32)c1 [Example 112, (S)-N-(1-methyl-1H-pyrazol-4-yl)-1-(3-(3-methylmorpholino)benzyl)-1H-pyrazolo[3,4-d]pyrimidin-6-amine] |
| < 100 | C[C@@H]1COCCN1c1cccc(Cn2ncc3cnc(Nc4cnn(C)c4)nc32)c1 [Example 113, (R)-N-(1-methyl-1H-pyrazol-4-yl)-1-(3-(3-methylmorpholino)benzyl)-1H-pyrazolo[3,4-d]pyrimidin-6-amine] |
| < 100 | Cn1cc(Nc2ncc3cnn(Cc4cccc(NC5COC5)c4)c3n2)cn1 [Example 114, N-(1-methyl-1H-pyrazol-4-yl)-1-(3-(oxetan-3-ylamino)benzyl)-1H-pyrazolo[3,4-d]pyrimidin-6-amine] |
